Structures can show the parent of a compound that is named as a salt.
How the values were obtained:
Assay type in all cases: biochemical
[1] = target: T1, GST-tagged recombinant full-length human Pim-2 (Homo sapiens, UniProt Q9P1W9); experiment: PIM-2 Assay (as Example A); conditions: averaged IC50; 4 μM ATP, 1.0 μM PIM2tide, 1.5 nM Pim-2
T1 construct: GST-tagged recombinant full-length human Pim-2; GST
Method: (§1) The assay for the determination of PIM-1 activity is based on the incorporation of [^33P]PO4 from [γ-^33P]ATP into PIM2tide substrate and capture of the radiolabeled peptide onto a Whatman P81 (phosphocellulose) filter plate. The amount of radiolabeled product is then measured by liquid scintillation counting. The final buffer conditions were as follows: 20 mM K^+MOPS, pH 7.4, 10 mM MgCl2, 0.005% Tween-20, 1 mM DTT. Assay mixtures contained 35 μM [γ-^33P]ATP (20 μCi/mL), 7.5 μM PIM2tide and 0.25 nM PIM-1 in a total volume of 50 μL. Incubations were carried out for 60 min at 22° C. and quenched with 75 μL of 200 mM H3PO4, filtered through a Whatman P81 plate and washed (1×200 μL and 5×100 μL) with 200 mM H3PO4. Fifty μL of liquid scintillation cocktail were then added per well, and the plate was counted for 30 s/well using a TopCount NXT.
(§2) Compounds were prepared at 50× the final concentration in DMSO by conducting 3-fold serial dilutions from a 500-μM intermediate dilution to give a 10-point dosing curve having a high dose of 10 μM. One-μL aliquots of these were then transferred to the assay mixtures above to give a final concentration of DMSO of 2%. A standard or reference compound was typically included on each assay plate to validate that plate. For each plate, percent of control (POC) values were calculated for each well. IC50 values were estimated from the POC values using a standard 4-parameter logistic model. The IC50 is defined as the concentration of inhibitor at which the POC equals 50 for the fitted curve.
Assay was performed as described in Example A, using 4 μM [γ-^33P]ATP (20 μCi/mL), 1.0 μM PIM2tide and 1.5 nM GST-tagged recombinant full-length human Pim-2 in place of PIM-1.

[2] = target: recombinant rat PIM-3 (Rattus norvegicus, UniProt O70444); experiment: PIM-3 Assay (as Example A); conditions: averaged IC50; 30 μM ATP, 3.75 μM PIM2tide, 0.5 nM PIM-3
Method: as §1, §2
Assay was performed as described in Example A, using 30 μM [γ-^33P]ATP (20 μCi/mL), 3.75 μM PIM2tide and 0.5 nM recombinant rat PIM-3 in place of PIM-1.

[3] = target: PIM-1 (Homo sapiens, UniProt P11309); experiment: Enzyme PIM-1 Assay ([33P]ATP incorporation into PIM2tide, filter plate); conditions: averaged IC50; 35 μM ATP, 7.5 μM PIM2tide, 0.25 nM PIM-1, 60 min at 22° C.
PIM-1, sequence (P11309 whole entry, species assumed): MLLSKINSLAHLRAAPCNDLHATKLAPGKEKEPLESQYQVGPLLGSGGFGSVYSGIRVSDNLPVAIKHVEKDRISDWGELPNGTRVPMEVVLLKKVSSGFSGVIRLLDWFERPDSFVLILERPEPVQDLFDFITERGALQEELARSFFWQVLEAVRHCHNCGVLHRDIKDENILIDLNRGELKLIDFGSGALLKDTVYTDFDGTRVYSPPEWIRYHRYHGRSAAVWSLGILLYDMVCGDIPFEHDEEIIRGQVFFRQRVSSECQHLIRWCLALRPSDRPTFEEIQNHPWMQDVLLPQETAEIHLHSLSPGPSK
Method: as §1, §2

T1 sequence (Q9P1W9 whole entry): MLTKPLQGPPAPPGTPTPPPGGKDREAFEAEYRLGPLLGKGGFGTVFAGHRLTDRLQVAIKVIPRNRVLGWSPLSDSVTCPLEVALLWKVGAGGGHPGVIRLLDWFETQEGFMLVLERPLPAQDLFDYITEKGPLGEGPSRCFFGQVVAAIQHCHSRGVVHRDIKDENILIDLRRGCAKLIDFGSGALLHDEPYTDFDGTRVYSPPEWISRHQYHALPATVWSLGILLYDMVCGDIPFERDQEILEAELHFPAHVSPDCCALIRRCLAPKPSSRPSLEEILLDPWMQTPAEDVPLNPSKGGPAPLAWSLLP

SMILES	IC50 [1]	IC50 [2]	IC50 [3]
CC(C)Oc1cc2nc(-c3nnc4ccc([C@@H](N5CC[C@H](N)C5)C(F)(F)F)cn34)ccc2cc1F [Example 119, (S)-1-((R)-2,2,2-trifluoro-1-(3-(6-fluoro-7-isopropoxyquinolin-2-yl)-[1,2,4]triazolo[4,3-a]pyridin-6-yl)ethyl)pyrrolidin-3-amine hydrochloride]	23 nM	0.9 nM	0.21 nM
N[C@H]1CCN([C@H](c2ccc3nnc(-c4ccc5cc(F)c(OCC6CC6)cc5n4)n3c2)C(F)(F)F)C1 [Example 134, (S)-1-((R)-1-(3-(7-(cyclopropylmethoxy)-6-fluoroquinolin-2-yl)-[1,2,4]triazolo[4,3-a]pyridin-6-yl)-2,2,2-trifluoroethyl)pyrrolidin-3-amine hydrochloride]	48 nM	0.6 nM	0.38 nM
CC(C)Oc1c(F)ccc2ccc(-c3nnc4ccc([C@@H](N5CC[C@H](N)C5)C(F)(F)F)cn34)nc12 [Example 109, (S)-1-((R)-2,2,2-trifluoro-1-(3-(7-fluoro-8-isopropoxyquinolin-2-yl)-[1,2,4]triazolo[4,3-a]pyridin-6-yl)ethyl)pyrrolidin-3-amine hydrochloride]	> 100 nM	5.5 nM	0.28 nM
FC(F)(F)[C@H](c1ccc2nnc(-c3ccc4ccc(C5CC5)cc4n3)n2c1)N1C[C@@H]2C[C@H]1CN2 [Example 77, 2-(6-((S)-1-((1S,4S)-2,5-diazabicyclo[2.2.1]heptan-2-yl)-2,2,2-trifluoroethyl)-[1,2,4]triazolo[4,3-a]pyridin-3-yl)-7-cyclopropylquinoline dihydrochloride]	10 nM	0.3 nM	0.16 nM
CCOc1cc2nc(-c3nnc4ccc([C@H](N5CCC(N)(CC)C5)C(F)(F)F)cn34)ccc2cc1F (single isomer, unassigned; diastereomer 2) [Example 245, dihydrochloride]	125 nM	0.5 nM	1.04 nM
Cn1cc(-c2ccc3ccc(-c4nnc5ccc([C@H](N6CCC(C)(O)C6)C(F)(F)F)cn45)nc3c2)cn1 (single isomer, unassigned; diastereomer 2) [Example 201, hydrochloride]	> 1000 nM	42 nM	43.5 nM
N[C@H]1CCN([C@H](c2ccc3nnc(-c4ccc5cc(F)cc(OC(F)F)c5n4)n3c2)C(F)(F)F)C1 [Example 228, (S)-1-((R)-1-(3-(8-(difluoromethoxy)-6-fluoroquinolin-2-yl)-[1,2,4]triazolo[4,3-a]pyridin-6-yl)-2,2,2-trifluoroethyl)pyrrolidin-3-amine dihydrochloride]	916 nM	3.8 nM	0.79 nM
COC[C@@H](C)Oc1ccc2ccc(-c3nnc4ccc([C@@H](N5CC[C@H](N)C5)C(F)(F)F)cn34)nc2c1 [Example 149, (S)-1-((R)-2,2,2-trifluoro-1-(3-(7-((R)-1-methoxypropan-2-yloxy)quinolin-2-yl)-[1,2,4]triazolo[4,3-a]pyridin-6-yl)ethyl)pyrrolidin-3-amine dihydrochloride]	> 100 nM	0.7 nM	0.17 nM
N[C@H]1CCN([C@H](c2ccc3nnc(-c4ccc5cc(F)c(OCC(F)(F)F)cc5n4)n3c2)C(F)(F)F)C1 [Example 226, (S)-1-((R)-2,2,2-trifluoro-1-(3-(6-fluoro-7-(2,2,2-trifluoroethoxy)quinolin-2-yl)-[1,2,4]triazolo[4,3-a]pyridin-6-yl)ethyl)pyrrolidin-3-amine dihydrochloride]	235 nM	0.5 nM	0.27 nM
COCCc1cc2nc(-c3nnc4ccc([C@H](N5CC[C@](C)(N)C5)C(F)(F)F)cn34)ccc2cc1F [Example 284, (S)-3-methyl-1-((S)-2,2,2-trifluoro-1-(3-(6-fluoro-7-(2-methoxyethyl)quinolin-2-yl)-[1,2,4]triazolo[4,3-a]pyridin-6-yl)ethyl)pyrrolidin-3-amine dihydrochloride]	50 nM	0.4 nM	0.28 nM
COCCOc1ccc2ccc(-c3nnc4ccc([C@@H](N5CC[C@H](N)C5)C(F)(F)F)cn34)nc2c1Cl [Example 174, (S)-1-((R)-1-(3-(8-chloro-7-(2-methoxyethoxy)quinolin-2-yl)-[1,2,4]triazolo[4,3-a]pyridin-6-yl)-2,2,2-trifluoroethyl)pyrrolidin-3-amine hydrochloride]	> 100 nM	0.8 nM	1.1 nM
CN(C)C(=O)Cc1cccc2ccc(-c3nnc4ccc([C@@H](N5CC[C@H](N)C5)C(F)(F)F)cn34)nc12 [Example 234, 2-(2-(6-((R)-1-((S)-3-aminopyrrolidin-1-yl)-2,2,2-trifluoroethyl)-[1,2,4]triazolo[4,3-a]pyridin-3-yl)quinolin-8-yl)-N,N-dimethylacetamide dihydrochloride]	> 1000 nM	33 nM	8.22 nM
CCOc1cc2nc(-c3nnc4ccc([C@H](N5CCC(N)(CC)C5)C(F)(F)F)cn34)ccc2cc1F (single isomer, unassigned; diastereomer 1) [Example 251, dihydrochloride]	102 nM	0.8 nM	0.75 nM

Further lines, results first:

IC50 [1]	IC50 [2]	IC50 [3]	SMILES
71 nM	0.4 nM	0.96 nM	CO[C@H](C)COc1ccc2ccc(-c3nnc4ccc([C@H](N5CC[C@](C)(N)C5)C(F)(F)F)cn34)nc2c1 [Example 305, (S)-3-methyl-1-((S)-2,2,2-trifluoro-1-(3-(7-((R)-2-methoxypropoxy)quinolin-2-yl)-[1,2,4]triazolo[4,3-a]pyridin-6-yl)ethyl)pyrrolidin-3-amine]
41 nM	1.1 nM	0.16 nM	N[C@H]1CCN([C@H](c2ccc3nnc(-c4ccc5cc(F)cc(OCC6CC6)c5n4)n3c2)C(F)(F)F)C1 [Example 158, (S)-1-((R)-1-(3-(8-(cyclopropylmethoxy)-6-fluoroquinolin-2-yl)-[1,2,4]triazolo[4,3-a]pyridin-6-yl)-2,2,2-trifluoroethyl)pyrrolidin-3-amine hydrochloride]
> 1000 nM	17 nM	2.6 nM	COc1cc(F)cc2ccc(-c3nnc4ccc([C@@H](N5CC[C@@](C)(N)C5)C(F)(F)F)cn34)nc12 [Example 241, (R)-3-methyl-1-((R)-2,2,2-trifluoro-1-(3-(6-fluoro-8-methoxyquinolin-2-yl)-[1,2,4]triazolo[4,3-a]pyridin-6-yl)ethyl)pyrrolidin-3-amine dihydrochloride]
52 nM	1 nM	0.07 nM	COCCc1cccc2ccc(-c3nnc4ccc([C@@H](N5CC[C@H](N)C5)C(F)(F)F)cn34)nc12 [Example 111, (S)-1-((R)-2,2,2-trifluoro-1-(3-(8-(2-methoxyethyl)quinolin-2-yl)-[1,2,4]triazolo[4,3-a]pyridin-6-yl)ethyl)pyrrolidin-3-amine dihydrochloride]
334 nM	25 nM	0.8 nM	CC1(N)CCN(C(c2ccc3nnc(-c4ccc5cccc(OCC6CC6)c5n4)n3c2)C(F)(F)F)C1 (stereo not drawn) [Example 27, 1-(1-(3-(8-(cyclopropylmethoxy)quinolin-2-yl)-[1,2,4]triazolo[4,3-a]pyridin-6-yl)-2,2,2-trifluoroethyl)-3-methylpyrrolidin-3-amine dihydrochloride]
63 nM	0.4 nM	0.22 nM	CCOc1ccc2ccc(-c3nnc4ccc([C@H](N5CC[C@](C)(N)C5)C(F)(F)F)cn34)nc2c1 [Example 262, (S)-1-((S)-1-(3-(7-ethoxyquinolin-2-yl)-[1,2,4]triazolo[4,3-a]pyridin-6-yl)-2,2,2-trifluoroethyl)-3-methylpyrrolidin-3-amine dihydrochloride]
935 nM	76 nM	2.01 nM	NC[C@@H]1CCN(C(c2ccc3nnc(-c4ccc5cccc(OCC6CC6)c5n4)n3c2)C(F)(F)F)C1 (stereo partly drawn) [Example 24, ((3S)-1-(1-(3-(8-(cyclopropylmethoxy)quinolin-2-yl)-[1,2,4]triazolo[4,3-a]pyridin-6-yl)-2,2,2-trifluoroethyl)pyrrolidin-3-yl)methanamine dihydrochloride]

Reference: patent US8889704B2 (Array BioPharma Inc., priority 2011, dated 2014)
